{
  "source": "ChEMBL document CHEMBL1201862",
  "about": "“PubChem BioAssay data set” (2004)",
  "key": {"[1]": {"molecular_target": "Mitogen-activated protein kinase 10 (Homo sapiens, UniProt P53779)", "experiment": "Dose response biochemical screening assay for inhibitors of c-Jun N-Terminal Kinase 3 (JNK3). [Related pubchem assays: 746 ]"}, "[2]": {"experiment": "rise of 2N DNA cells, HeLa – IC50, dose response (AID 1117349)", "type": "functional, cell-based"}, "[3]": {"experiment": "CellTiter-Glo luminescence survival assay, SW480 colon tumor line, concentration-response curve, half-maximal inhibitory concentration (AID 1117338)", "type": "functional"}, "[4]": {"experiment": "RKO cell viability reduction, dose response, CellTiter-Glo luminescence (AID 1117322)", "type": "functional"}, "[5]": {"experiment": "cytotoxicity toward HCT116 cells – cell-based, CellTiter-Glo luminescence, IC50, dose response (AID 1117332)", "type": "functional", "conditions": "HCT-116"}, "[6]": {"experiment": "SNU-C1 cell viability reduction, dose response, CellTiter-Glo luminescence (AID 1117323)", "type": "functional, cell-based"}, "[7]": {"experiment": "cytotoxicity toward Colo320 cells – cell-based, CellTiter-Glo luminescence, IC50, dose response (AID 1117334)", "type": "functional", "conditions": "COLO 320"}, "[8]": {"experiment": "rise of 4N DNA cells, HeLa – IC50, dose response (AID 1117351)", "type": "functional, cell-based"}, "[9]": {"experiment": "cytotoxicity toward HT-29 cells – cell-based, CellTiter-Glo luminescence, IC50, dose response (AID 1117330)", "type": "functional"}, "[10]": {"experiment": "Reduced DLD-1 viability, concentration-response, CellTiter-Glo luminescence (AID 1117352)", "type": "functional"}, "[11]": {"experiment": "HCT116 cell viability decrease, GSK3B pretreatment – CellTiter-Glo, IC50, dose response (AID 1117339)", "type": "functional", "conditions": "HCT-116"}, "[12]": {"experiment": "viability loss in THP-1 monocytes – THP-1 cells, cytotoxicity control for Vif-APOBEC3G degradation inhibitor project, dose response (AID 1117359)", "type": "functional", "conditions": "THP-1"}, "[13]": {"molecular_target": "E3 ubiquitin-protein ligase Mdm2 (Homo sapiens, UniProt Q00987)", "experiment": "MDM2-luc reporter signal enhancers, multi-concentration potency testing, MDM2 ubiquitin-protein ligase inhibitor program, whole-cell format, luminescence detection, 384-well microplate (AID 1394);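 further: MDM2 E3 inhibitors raise luminescence so EC50 is for signal enhancement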", "type": "functional"}, "[14]": {"system": "Vero", "experiment": "cells", "type": "functional", "conditions": "Chlorocebus sabaeus"}, "[15]": {"molecular_target": "Major prion protein (Homo sapiens, UniProt P04156)", "type": "functional, cell-based"}, "[16]": {"experiment": "cells"}, "[17]": {"experiment": "Luminescent dose response cell-based high throughput screening assay for inhibitors of the Janus kinase 2 mutant JAK2V617F. [Related pubchem assays: 1446 (Primary screen.), 1521 (Confirmation assay.), 1486 (Counter screen.)]", "type": "functional"}, "[18]": {"experiment": "Luminescence Cell-Based Dose Confirmation HTS to Identify Activators of 5'UTR Stem-Loop Driven Alpha-Synuclein mRNA Translation in H4 Neuroglioblastoma Cells. [Related pubchem assays: 1829 (Project Summary), 1814 (Primary HTS)]", "type": "functional"}, "[19]": {"experiment": "Luminescence Cell-Based Dose Response HTS to Identify Activators of Luciferase Translation or Activity in H4 […] Cells. [Related pubchem assays: 1829 (Project Summary), 1814 (Primary HTS)]", "type": "functional"}, "[20]": {"system": "H4", "experiment": "Luminescence Cell-Based Dose Response HTS to Identify Activators of 5'UTR Stem-Loop Driven Prion Protein mRNA Translation in H4 Neuroglioblastoma Cells. [Related pubchem assays: 1829 (Project Summary), 1814 (Primary HTS)]", "type": "functional", "conditions": "Homo sapiens"}, "[21]": {"experiment": "HEK-293T viability loss after treatment – luminescence, T-cell screen hits, cytotoxicity control for TCR NF-kB inhibitor project, dose response (AID 489026);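 further: cells exposed to compound about 14 hours before the viability readout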", "type": "functional, cell-based"}, "[22]": {"molecular_target": "Kallikrein-7 (Homo sapiens, UniProt P49862)", "experiment": "Fluorescence Intensity-based biochemical primary high throughput dose response assay to identify activators of kallikrein-7 (K7) zymogen."}, "[23]": {"experiment": "viability inhibitors of stage V gametocytes – luminescence, dose response (AID 1117278);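 further: gametocytes exposed to compound for 24 hours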", "type": "functional, cell-based"}, "[24]": {"experiment": "viability loss in human Jurkat cells – cell-based, luminescence, cytotoxicity control for P. falciparum gametocyte viability project, dose response (AID 1117277);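 further: potency reflects loss of cellular ATP meaning fewer viable cells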", "type": "functional"}, "[25]": {"experiment": "growth inhibition of yeast DHODH-expressing 3D7 parasites – SYBR Green, dry powder samples, dose response (AID 1159570);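 further: parasite growth measured after 72 hours of compound exposure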", "type": "functional, cell-based"}, "[26]": {"experiment": "toxicity to human HepG2 hepatoma cells – cell-based, plate reader, dry powder samples, cytotoxicity control, dose response (AID 1159569);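 further: inhibitor potency with signal falling toward the positive control level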", "type": "functional"}, "[27]": {"experiment": "P. falciparum Dd2 growth inhibitors, dose response, SYBR Green, cherry-picked samples (AID 1159567)", "type": "functional, cell-based"}, "[28]": {"experiment": "Dd2 malaria parasite growth inhibition potency – SYBR Green, dry powder samples, dose response (AID 1159566)", "type": "functional, cell-based"}, "[29]": {"experiment": "toxicity to human hepatoma HepG2 cells – cell-based, cherry-picked samples, cytotoxicity control, dose response (AID 1159577)", "type": "functional"}, "[30]": {"experiment": "growth inhibition of PfATP4-mutant resistant parasites – NITD609-resistant line, SYBR Green, dry powder, dose response (AID 1159571);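 further: parasites synchronized at ring stage by sorbitol before testing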", "type": "functional, cell-based"}, "[31]": {"molecular_target": "T1, Mucolipin-3 (Homo sapiens, UniProt Q8TDD5)", "T1 sequence (Q8TDD5 whole entry)": "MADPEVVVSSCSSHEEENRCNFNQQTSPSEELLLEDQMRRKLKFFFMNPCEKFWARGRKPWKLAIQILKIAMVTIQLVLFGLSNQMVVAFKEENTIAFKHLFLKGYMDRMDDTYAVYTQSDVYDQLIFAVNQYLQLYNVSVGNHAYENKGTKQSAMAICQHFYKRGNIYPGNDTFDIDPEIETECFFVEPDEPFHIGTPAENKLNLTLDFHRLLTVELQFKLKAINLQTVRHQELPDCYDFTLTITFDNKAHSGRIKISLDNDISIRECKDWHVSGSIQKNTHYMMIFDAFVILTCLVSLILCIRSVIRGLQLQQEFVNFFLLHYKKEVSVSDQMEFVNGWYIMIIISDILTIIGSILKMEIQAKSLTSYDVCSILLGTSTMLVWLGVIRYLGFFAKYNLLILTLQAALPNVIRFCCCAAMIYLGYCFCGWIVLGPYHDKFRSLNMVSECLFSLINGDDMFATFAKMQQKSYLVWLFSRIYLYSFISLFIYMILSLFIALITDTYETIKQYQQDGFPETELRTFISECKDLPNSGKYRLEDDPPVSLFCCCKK", "experiment": "Dose response cell-based high-throughput screening assay for agonists of the transient receptor potential channel ML3 (TRPML3). [Related pubchem assays: 1526, 1424, 1448 ]", "type": "functional"}, "[32]": {"molecular_target": "Ion channel NompC (Danio rerio, UniProt Q7T1G6)", "experiment": "Fluorescence counterscreen assay for TRPML3 agonists: dose response cell-based high-throughput screening assay to identify agonists of the transient receptor potential channel N1 (TRPN1). [Related pubchem assays: 1526, 1424, 1448 ]", "type": "functional"}, "[33]": {"experiment": "Luminescence Cell-Based Dose Retest to Confirm Inhibitors of Cancer Stem Cells. [Related pubchem assays (depositor defined):AID2717, AID2721]", "type": "functional", "conditions": "Homo sapiens"}, "[34]": {"experiment": "Fluorescence-based cell-based high throughput dose response assay for inhibitors of the interaction of nucleotide-binding oligomerization domain containing 2 (NOD2) and the receptor-interacting serine-threonine kinase 2 (RIPK2).", "type": "functional", "conditions": "Homo sapiens"}},
  "note": "Activity calls are given as the source filed them.",
  "data": [
    {"molecule": "CCOc1cc(C2NC(=O)NC(C)=C2C(=O)OCc2ccccc2)ccc1O", "note": "(stereo not given)", "values": [
      {"measurement": "IC50", "setting": "[1]", "value": "34.6 µM (not active)"}
    ]},
    {"molecule": "CCc1oc2ccccc2c1C(=O)c1cc(I)c(O)c(I)c1", "note": "[BENZIODARONE]", "values": [
      {"measurement": "IC50", "setting": "[2]", "value": "> 10 µM (inactive)"},
      {"measurement": "IC50", "setting": "[3]", "value": "0.001 µM (active)"},
      {"measurement": "IC50", "setting": "[4]", "value": "0.003 µM (active)"},
      {"measurement": "IC50", "setting": "[5]", "value": "0.003 µM (active)"},
      {"measurement": "IC50", "setting": "[6]", "value": "0.001 µM (active)"},
      {"measurement": "IC50", "setting": "[7]", "value": "0.003 µM (active)"},
      {"measurement": "IC50", "setting": "[8]", "value": "> 10 µM (inactive)"},
      {"measurement": "IC50", "setting": "[9]", "value": "0.001 µM (active)"},
      {"measurement": "IC50", "setting": "[10]", "value": "0.003 µM (active)"},
      {"measurement": "IC50", "setting": "[11]", "value": "0.001 µM (active)"}
    ]},
    {"molecule": "O=[N+]([O-])c1ccc2c([N+](=O)[O-])ccc3c2c1CC3", "values": [
      {"measurement": "CC50", "setting": "[12]", "value": "> 40 µM (active)"}
    ]},
    {"molecule": "CN(C)c1n/c(=N/Cc2ccco2)ss1", "values": [
      {"measurement": "EC50", "setting": "[13]", "value": "0.26 µM (active)"},
      {"measurement": "CC50", "setting": "[14]", "value": "23.8 µM (active)"}
    ]},
    {"molecule": "COc1cc2cc(Br)cc(Br)c2nc1C", "values": [
      {"measurement": "IC50", "setting": "[15]", "value": "4.51 µM (active)"},
      {"measurement": "IC50", "setting": "[16]", "value": "> 138 µM (inactive)"}
    ]},
    {"molecule": "O=C1C=CCC(/C=C/c2ccccc2)O1", "note": "(stereo not given)", "values": [
      {"measurement": "IC50", "setting": "[17]", "value": "1.31 µM (active)"},
      {"measurement": "EC50", "setting": "[18]", "value": "> 120 µM (not active)"},
      {"measurement": "EC50", "setting": "[19]", "value": "> 120 µM (not active)"},
      {"measurement": "EC50", "setting": "[20]", "value": "98.3 µM (active)"},
      {"measurement": "IC50", "setting": "[21]", "value": "> 80 µM (inactive)"}
    ]},
    {"molecule": "Cc1nn(CCc2nnn[nH]2)c2nc(C(F)(F)F)cc(C(F)(F)F)c12", "values": [
      {"measurement": "EC50", "setting": "[22]", "value": "> 69.5 µM (inactive)"}
    ]},
    {"molecule": "Nc1nc(SCC(=O)N2CCCC2)nc(O)c1NC(=O)c1cccs1", "values": [
      {"measurement": "IC50", "setting": "[23]", "value": "> 109 µM (inactive)"},
      {"measurement": "IC50", "setting": "[24]", "value": "> 83.2 µM (inactive)"}
    ]},
    {"molecule": "COc1cccc(C#Cc2ccc([C@@H]3[C@@H](CO)N(C(=O)C4CCCCC4)[C@H]3C#N)cc2)c1", "values": [
      {"measurement": "AC50", "setting": "[25]", "value": "2 µM (active)"},
      {"measurement": "AC50", "setting": "[26]", "value": "24.5 µM (active)"},
      {"measurement": "AC50", "setting": "[27]", "value": "2.6 µM (active)"},
      {"measurement": "AC50", "setting": "[28]", "value": "1.72 µM (active)"},
      {"measurement": "AC50", "setting": "[29]", "value": "> 39 µM (inactive)"},
      {"measurement": "AC50", "setting": "[30]", "value": "2.06 µM (active)"}
    ]},
    {"molecule": "O=S(=O)(c1cnc(Cl)c(Br)c1)N1CCc2ccccc21", "values": [
      {"measurement": "IC50", "setting": "[17]", "value": "4.22 µM (active)"},
      {"measurement": "EC50", "setting": "[31]", "value": "7.71 µM (active)"},
      {"measurement": "EC50", "setting": "[32]", "value": "> 29.9 µM (not active)"},
      {"measurement": "AC50", "setting": "[33]", "value": "12.1 µM (inconclusive)"},
      {"measurement": "IC50", "setting": "[34]", "value": "6.35 µM (active)"}
    ]}
  ]
}
